# Source: paper PMC7591906, “pHLIP ICG for delineation of tumors and blood flow during fluorescence-guided surgery” (Scientific Reports, 2020)
# pIC50, pKi: −log10 of the molar value.
# Experiments:
# [1] = cited from earlier work
# Experimental: We carried out a comparative study of blood flow imaging in mice using ICG-Cys (ICG-maleimide conjugated with a Cys residue) and pHLIP ICG (2.5 nmol of each). […] The most widely used is the near-infrared emitting ICG, first approved for angiography and subsequently used in ophthalmology and elsewhere for imaging blood vessels[36]–[41]. […] If administered intraperitoneally, ICG is found in the nearest lymph nodes within 15 min, and in the regional lymph nodes within 1–2 h[44],[45]. The IV dose of ICG varies from 0.5 to 2.0 ...
# [2] = Peripheral blood micronucleus test in rats (GLP); assay type: in vivo, Sprague Dawley rats; conditions: male rats, 10 mg/kg oral gavage twice, 24 hours apart
# Experimental: The objective of this GLP study performed at CRL was to determine the potential genotoxicity of pHLIP ICG when given by i.v. bolus injection to rats using the peripheral blood micronucleus test.
# In order to determine the maximum tolerated dose, a dose-range finding test was performed prior to the main test, where male and female rats (3 animals/sex) were administered a single dose of pHLIP ICG by i.v. injection. The doses evaluated were 14 mg/kg and 25 mg/kg using 5% EtOH in PBS, pH 7.4 as the vehicle.
# Blood was collected for micronuclei evaluation at 45 hours post-dose (Groups 3 to 7), and 69 hours post-dose (Groups 3 and 7). The proportion of immature erythrocytes among total erythrocytes in the peripheral blood (%RETs) and the percentage of micronucleated reticulocytes (%MN-RETs) in the NC group were within the laboratory historical negative control range. […] The results from both NC and PC groups confirmed the validity of the assay.
# progesterone receptor B = target: T1, progesterone receptor B (Homo sapiens, UniProt P06401); assay: Progesterone receptor B radioligand binding assay
# T1 construct: purchased Eurofins Panlabs, Inc
# T1 sequence (P06401 1-933): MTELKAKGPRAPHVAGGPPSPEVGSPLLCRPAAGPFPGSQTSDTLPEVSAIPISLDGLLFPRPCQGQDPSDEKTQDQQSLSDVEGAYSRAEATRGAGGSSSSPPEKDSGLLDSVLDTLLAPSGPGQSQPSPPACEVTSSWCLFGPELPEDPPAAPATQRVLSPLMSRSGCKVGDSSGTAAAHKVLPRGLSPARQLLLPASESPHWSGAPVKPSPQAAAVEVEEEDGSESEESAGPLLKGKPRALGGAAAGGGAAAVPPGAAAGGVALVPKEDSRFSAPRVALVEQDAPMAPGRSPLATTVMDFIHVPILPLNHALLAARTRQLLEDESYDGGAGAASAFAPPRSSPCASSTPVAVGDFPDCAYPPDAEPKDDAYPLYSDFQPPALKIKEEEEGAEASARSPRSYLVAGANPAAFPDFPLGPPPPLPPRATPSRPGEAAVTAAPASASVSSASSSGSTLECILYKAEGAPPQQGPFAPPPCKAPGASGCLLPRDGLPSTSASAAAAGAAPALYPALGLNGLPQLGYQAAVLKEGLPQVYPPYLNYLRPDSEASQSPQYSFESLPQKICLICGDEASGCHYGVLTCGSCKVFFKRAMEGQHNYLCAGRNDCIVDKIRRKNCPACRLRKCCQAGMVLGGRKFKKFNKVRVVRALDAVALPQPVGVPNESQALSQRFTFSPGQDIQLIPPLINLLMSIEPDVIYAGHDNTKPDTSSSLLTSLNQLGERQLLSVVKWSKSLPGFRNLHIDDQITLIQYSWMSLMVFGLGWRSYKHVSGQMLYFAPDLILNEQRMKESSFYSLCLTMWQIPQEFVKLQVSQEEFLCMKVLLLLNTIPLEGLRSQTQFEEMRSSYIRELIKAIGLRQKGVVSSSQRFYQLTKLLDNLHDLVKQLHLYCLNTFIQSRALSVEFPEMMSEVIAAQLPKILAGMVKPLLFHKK
# Experimental: The pHLIP ICG enzyme binding assays were performed by Eurofins Panlabs, Inc. according to standard assay protocols. The following enzymes were used in the binding assay with 2 µM of pHLIP ICG : acetyl cholinesterase; peptidase (angiotensin converting enzyme); ATPase (Na^+/K^+, pig heart); CTSG peptidase (cathepsin G); cyclooxygenases COX-1 and COX-2; monoamine oxidases MAO-A and MAO-B; phosphodiesterases PDE3 and PDE4D2; protein tyrosine kinase (insulin receptor); protein tyrosine kinase (LCK); protein serine/threonine kinase (PKC, non-selective); adenosine A1 and A2A; adenosine transporter; adrenergic α1A, α1B, α1D, α2A, α2B, β1 and β2; norepinephrine transporter (NET); androgen (testosterone); angiotensin AT1; bradykinin B2; calcium channels L-type (benzothiazepine, dihydropyridine, phenylalkylamine); calcium channel N-type; cannabinoid CB1 and CB2; chemokine CCR1; cholecystokinin CCK1 (CCKA) and CCK2 (CCKB); dopamine D1, D2L and D2S; dopamine transporter (DAT); endothelin ETA; estrogen ERα; GABA transporter; GABAAs (flunitrazepam, central; Ro-15-1788, hippocampus and chloride channel, TBOB); glucocorticoid; glutamate (AMPA, kainate, agonism NMDA, glycine NMDA, phencyclidine NMDA, polyamine NMDA, and mGlu5 metabotropic); glycine (strychnine-sensitive); histamine H1 and H2; chemokine CXCR2 (IL-8RB); cysteinyl leukotriene (CysLT1); melanocortin MC1 and MC4; muscarinic M1, M2, M3, and M4; tachykinin NK1; neuropeptide Y Y1; nicotinic acetylcholine α1 (bungarotoxin) and α3β4; opiate δ1 (OP1, DOP), κ (OP2, KOP), and μ (OP3, MOP); platelet activating factor (PAF); potassium channels (KATP and hERG); PPARγ; serotonin (5-hydroxytryptamine) 5-HT1A, 5-HT1B, 5-HT2A, 5-HT2B, 5-HT2C, and 5-HT3; serotonin transporter (SERT); sodium channel (site 2); vasopressin V1A; progesterone (PR-B). The most significant inhibitory effect of pHLIP ICG was observed on progesterone B and was followed by an additional study to identify IC50 values, which were determined by a non-linear least square regression analysis using MathIQTM (ID Business Solutions Ltd., UK). The Ki values were calculated by the equation from Cheng and Prusoff [Cheng, Y., Prusoff, W.H., Biochem. Pharmacol. 22:3099-3108, 1973] using the observed IC50 of pHLIP ICG , the concentration of radioligand employed in the assay, and the historical values for the KD of the ligand (Eurofins Panlabs data). The Hill coefficient (nH), defining the slope of the competitive binding curve, was calculated using MathIQTM. The IC50, Ki, and nH values were established for pHLIP ICG and compared to the known progesterone agonist, R-2050 (Figure S3).
# Figure SI,3. […]
structure (smiles),measurement,setting,value
"CC1(C)C(/C=C/C=C/C=C/C=C2\N(CCCCS(=O)(=O)O)c3ccc4ccccc4c3C2(C)C)=[N+](CCCCS(=O)(=O)[O-])c2ccc3ccccc3c21 [ICG, indocyanine green]",Time to be found in the nearest lymph nodes,[1]; administered intraperitoneally,≤ 15 min
same,Time to be found in the regional lymph nodes,[1]; administered intraperitoneally,1 to 2 h
same,Clearance from the blood,"[1]; as contrast agent for imaging blood flow, no reference given",within a few minutes
same,Half-life in blood,[1],2.5 min
same,Time of appearance in the bile after injection,[1]; cleared through the liver,about 8 min
same,Acute toxicity,[1]; high dose of 5 mg/kg,no acute toxicity has been observed
"O=P1(N(CCCl)CCCl)NCCCO1 (stereo not drawn) [PC, cyclophosphamide monohydrate, reference compound]","Micronuclei, positive control",[2],statistically significant increase in micronuclei
"CCC(=O)[C@@]1(C)CC[C@H]2[C@@H]3CCC4=CC(=O)CCC4=C3CC[C@@]21C [R-2050, reference compound]",pKi,"progesterone receptor B; Cheng-Prusoff from IC50, reference agonist, read-out: Ki progesterone receptor B",9.59
same,pIC50,"progesterone receptor B; radioligand binding, 20 hrs, reference agonist, read-out: IC50 progesterone receptor B",9.48
